Reference: paper PMC11790914, “Chemogenomics for steroid hormone receptors (NR3)” (Communications Chemistry, 2025)
Where “and” joins values, the source holds several entries; their conditions need not be identical. Identical values can stand only once. Entries after “also recorded” stand apart in the source; their conditions may differ.

Legend:
AURKA = biological target: T1, AURKA (Homo sapiens, UniProt O14965); assay: Liability panel screening by DSF: AURKA; type: binding; details: DSF, 20 µM, n=2; read-out: Mean ΔTM AURKA
T1 construct: made in house
T1 sequence (O14965 1-403): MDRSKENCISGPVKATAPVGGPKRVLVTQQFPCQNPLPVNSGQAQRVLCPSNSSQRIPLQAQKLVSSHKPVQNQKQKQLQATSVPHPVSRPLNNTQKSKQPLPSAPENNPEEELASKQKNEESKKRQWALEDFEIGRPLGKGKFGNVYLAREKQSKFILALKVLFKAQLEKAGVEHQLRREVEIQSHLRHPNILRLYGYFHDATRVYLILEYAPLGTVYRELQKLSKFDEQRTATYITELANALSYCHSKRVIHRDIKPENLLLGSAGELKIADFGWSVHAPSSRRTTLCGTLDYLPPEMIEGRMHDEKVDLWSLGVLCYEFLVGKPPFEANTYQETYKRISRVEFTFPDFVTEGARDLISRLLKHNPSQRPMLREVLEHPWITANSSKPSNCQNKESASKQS
Summary of the method: (§1)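 Thermal shift: in-house recombinant protein at 2 µM in 10 mM HEPES pH 7.5 with 500 mM NaCl, SYPRO Orange 1:1000, heated at 3 °C/min to 85 °C in technical duplicates. Tm is the Boltzmann inflection point, reported as ∆Tm in K.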

BRPF1 = biological target: T2, BRPF1 (Homo sapiens, UniProt P55201); assay: Liability panel screening by DSF: BRPF1; type: binding; details: DSF, 20 µM, n=2; read-out: Mean ΔTM BRPF1
T2 construct: This panel comprised ten highly ligandable kinases and bromodomains; made in house
T2 sequence (P55201 628-732 limits assumed): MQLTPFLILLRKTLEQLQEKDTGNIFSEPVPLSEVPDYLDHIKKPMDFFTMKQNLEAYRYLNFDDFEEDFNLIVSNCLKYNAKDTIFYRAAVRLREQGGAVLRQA
Summary of the method: as §1

GSK3B = biological target: T3, GSK3B (Homo sapiens, UniProt P49841); assay: Liability panel screening by DSF: GSK3B; type: binding; details: DSF, 20 µM, n=2; read-out: Mean ΔTM GSK3B
T3 construct: made in house

CDK2 = biological target: T4, CDK2 (Homo sapiens, UniProt P24941); assay: Liability panel screening by DSF: CDK2; type: binding; details: DSF, 20 µM, n=2; read-out: Mean ΔTM CDK2
T4 construct: made in house
Summary of the method: as §1

MAPK1 = biological target: T5, MAPK1 (Homo sapiens, UniProt P28482); assay: Liability panel screening by DSF: MAPK1; type: binding; details: DSF, 20 µM, n=2; read-out: Mean ΔTM MAPK1
T5 construct: made in house
Summary of the method: as §1

HEK293T cells [1] = assay: Cytotoxicity: apoptosis induction (caspase-3/7 DEVD fluorogenic DNA dye); details: single replicates
BRD4 = biological target: T6, BRD4 (Homo sapiens, UniProt O60885); assay: Liability panel screening by DSF: BRD4; type: binding; details: DSF, 20 µM, n=2; read-out: Mean ΔTM BRD4
T6 construct: This panel comprised ten highly ligandable kinases and bromodomains; made in house
Summary of the method: as §1

ABL1 = biological target: T7, ABL1 (Homo sapiens, UniProt P00519); assay: Liability panel screening by DSF: ABL1; type: binding; details: DSF, 20 µM, n=2; read-out: Mean ΔTM ABL1
T7 construct: made in house
Summary of the method: as §1

CSNK1D = biological target: T8, CSNK1D (Homo sapiens, UniProt P48730); assay: Liability panel screening by DSF: CSNK1D; type: binding; details: DSF, 20 µM, n=2; read-out: Mean ΔTM CSNK1D
T8 construct: made in house
Summary of the method: as §1

[2] = test system: NF-κB activity in HEK293 NF-κB reporter cells; assay: NF-kB activity assay (GFP reporter, ionomycin/PMA); type: cell-based; details: n=3
Summary of the method: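 HEK293 NF-κB GFP reporter cells given compound in 0.1% DMSO for 4 h, then stimulated with ionomycin 100 ng/mL plus PMA 10 ng/mL. Imaged every 90 min over 24 h; GFP-positive cell count normalized to confluence, three independent biological replicates.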

HEK293T cells [3] = assay: Cytotoxicity: necrosis induction (red fluorescent dye for permeable plasma membranes); type: cell-based; details: 24 h, necrotic cell count normalized to 0.1% DMSO, single replicates;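 also: compounds applied in DMEM high glucose with 0.1% FCS and 0.1% DMSO, necrotic HEK293T cells counted by red staining of cells whose plasma membranes had become permeable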
[4] = test system: ATF6 activity in Hela ATF6 reporter cells; assay: Endoplasmic reticulum stress assay (ATF6 Renilla luciferase reporter, tunicamycin); type: cell-based
Summary of the method: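 HeLa ATF6 Renilla reporter cells were pretreated 4 h with compounds in 0.1% DMSO, then stimulated with tunicamycin (100 ng/mL) for 18 h. Renilla luminescence (DualGlo) was normalized to 0.1% DMSO control; five independent experiments.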

HEK293T cells [5] = assay: Cytotoxicity: growth-rate (change in confluence over 24 h); details: normalized to 0.1% DMSO control, single replicates (n=1...)
Gal4-VP16 = type: cell-based; details: 1 µM
Description: Five hours after transfection, the cells were incubated with the NR3 CG compound candidates at the recommended concentrations by changing the medium to Opti-MEM supplemented with penicillin (100 µ/mL) and streptomycin (100 µg/mL) additionally containing 0.1% DMSO and the respective test compound or 0.1% DMSO alone as untreated control. Firefly (reporter) and renilla (control) luminescence were measured after 14–16 h incubation using the Dual-Glo® Luciferase Assay System (Promega, Fitchburg, Wisconsin, USA; #E2980) according to manufacturer’s protocol on a Tecan Spark® 10M multimode microplate reader (Tecan Group AG, Männedorf, Switzerland). To obtain relative light units (RLU) firefly luminescence was divided by renilla luminescence and multiplied by 1000. Fold activation was obtained by dividing the mean RLU of a test sample by the mean RLU of the DMSO (0.1%) control. Experiments were performed in singlets in at least three biologically independent repeats.
are labeled according to their mode of action (yellow - agonist, grey - antagonist, grey with label D - degrader) and grouped by their
NR3 subfamily main targets.
reporter activity at the indicated concentrations expressed as mean fold reporter gene activity (n=3).

T3 sequence (P49841 whole entry, species assumed): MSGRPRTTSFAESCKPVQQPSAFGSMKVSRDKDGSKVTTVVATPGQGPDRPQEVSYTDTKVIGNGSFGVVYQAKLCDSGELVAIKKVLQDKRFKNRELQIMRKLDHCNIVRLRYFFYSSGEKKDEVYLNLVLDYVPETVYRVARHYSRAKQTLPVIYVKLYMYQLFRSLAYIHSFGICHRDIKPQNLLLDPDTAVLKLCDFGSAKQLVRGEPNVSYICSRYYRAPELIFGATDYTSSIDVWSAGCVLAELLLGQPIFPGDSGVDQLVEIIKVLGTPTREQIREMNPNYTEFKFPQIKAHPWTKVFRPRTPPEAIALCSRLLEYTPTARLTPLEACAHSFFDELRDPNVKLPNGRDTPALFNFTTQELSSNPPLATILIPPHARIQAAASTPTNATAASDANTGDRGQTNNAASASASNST
T7 sequence (P00519 whole entry, species assumed): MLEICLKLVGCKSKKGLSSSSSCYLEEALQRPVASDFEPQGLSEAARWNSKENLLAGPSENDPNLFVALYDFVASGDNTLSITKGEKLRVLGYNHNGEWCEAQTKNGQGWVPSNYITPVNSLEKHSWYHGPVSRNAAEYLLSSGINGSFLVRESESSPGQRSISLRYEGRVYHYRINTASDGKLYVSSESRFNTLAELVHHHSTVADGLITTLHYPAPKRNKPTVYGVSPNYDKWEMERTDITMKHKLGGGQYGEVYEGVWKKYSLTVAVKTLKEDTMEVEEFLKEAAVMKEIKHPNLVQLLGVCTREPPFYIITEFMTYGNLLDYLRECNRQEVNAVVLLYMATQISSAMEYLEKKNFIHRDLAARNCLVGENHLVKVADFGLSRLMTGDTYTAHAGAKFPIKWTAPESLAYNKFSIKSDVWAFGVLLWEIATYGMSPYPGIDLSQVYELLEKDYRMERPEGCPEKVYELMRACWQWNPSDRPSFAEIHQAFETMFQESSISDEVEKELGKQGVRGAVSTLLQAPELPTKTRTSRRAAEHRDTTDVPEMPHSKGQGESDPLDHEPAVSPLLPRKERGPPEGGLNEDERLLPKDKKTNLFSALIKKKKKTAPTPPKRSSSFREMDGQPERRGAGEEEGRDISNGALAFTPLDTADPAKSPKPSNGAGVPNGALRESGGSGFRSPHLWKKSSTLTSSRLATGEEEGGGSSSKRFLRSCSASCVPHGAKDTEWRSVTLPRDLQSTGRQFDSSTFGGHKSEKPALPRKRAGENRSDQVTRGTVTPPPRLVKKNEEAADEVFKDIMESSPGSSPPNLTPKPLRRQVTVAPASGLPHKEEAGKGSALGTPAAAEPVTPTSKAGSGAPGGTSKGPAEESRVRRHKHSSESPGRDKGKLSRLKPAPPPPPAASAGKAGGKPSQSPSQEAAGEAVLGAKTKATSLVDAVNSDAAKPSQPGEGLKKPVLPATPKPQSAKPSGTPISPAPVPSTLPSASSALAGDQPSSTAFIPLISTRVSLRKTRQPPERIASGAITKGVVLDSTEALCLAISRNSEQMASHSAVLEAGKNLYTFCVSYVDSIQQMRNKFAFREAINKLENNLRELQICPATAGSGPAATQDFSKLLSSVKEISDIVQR
T5 sequence (P28482 whole entry, species assumed): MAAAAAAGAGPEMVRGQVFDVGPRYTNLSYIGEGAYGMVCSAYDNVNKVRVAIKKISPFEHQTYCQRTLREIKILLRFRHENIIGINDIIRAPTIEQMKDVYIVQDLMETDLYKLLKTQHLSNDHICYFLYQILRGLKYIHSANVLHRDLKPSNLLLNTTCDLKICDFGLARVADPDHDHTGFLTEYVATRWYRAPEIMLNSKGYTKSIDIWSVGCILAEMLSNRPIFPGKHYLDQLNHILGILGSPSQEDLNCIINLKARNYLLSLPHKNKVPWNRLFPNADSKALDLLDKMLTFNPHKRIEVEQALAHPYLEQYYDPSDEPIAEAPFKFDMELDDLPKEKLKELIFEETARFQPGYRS
T8 sequence (P48730 whole entry, species assumed): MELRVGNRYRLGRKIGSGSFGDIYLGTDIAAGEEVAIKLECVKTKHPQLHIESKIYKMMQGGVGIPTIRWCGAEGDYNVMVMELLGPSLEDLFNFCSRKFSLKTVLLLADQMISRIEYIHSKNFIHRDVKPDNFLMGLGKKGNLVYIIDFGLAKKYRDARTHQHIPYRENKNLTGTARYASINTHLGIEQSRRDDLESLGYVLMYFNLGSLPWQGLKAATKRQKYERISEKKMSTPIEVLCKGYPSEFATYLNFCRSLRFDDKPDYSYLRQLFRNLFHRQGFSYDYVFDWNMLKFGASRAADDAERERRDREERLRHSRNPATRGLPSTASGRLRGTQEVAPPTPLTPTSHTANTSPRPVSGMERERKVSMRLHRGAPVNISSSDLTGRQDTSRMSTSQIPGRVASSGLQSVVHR

## CC/C(=C(/CC)c1ccc(O)cc1)c1ccc(O)cc1 [Diethylstilbestrol]
AURKA
  ΔTm at 20 µM: -1.78 °C
BRPF1
  ΔTm at 20 µM: -8.49 °C
GSK3B
  ΔTm at 20 µM: -3.54 °C
CDK2
  ΔTm at 20 µM: -5.57 °C
MAPK1
  ΔTm at 20 µM: -12.2 °C
HEK293T cells [1]; 0.3 µM, HEK293T, 24 h, apoptotic cell count normalized to 0.1% DMSO
  Apoptosis induction [AI]: 0.86 and 1.37 (2×) and 0.83 and 1.54 and 0.77
HEK293T cells [1]; 3 µM, HEK293T, 24 h, apoptotic cell count normalized to 0.1% DMSO
  Apoptosis induction [AI]: 0.65 and 0.97 and 0.69 and 0.85 and 1.67 and 1.65
BRD4
  ΔTm at 20 µM: -4.78 °C
ABL1
  ΔTm at 20 µM: -0.96 °C
CSNK1D
  ΔTm at 20 µM: -0.81 °C
[2]; 0.3 µM, 1,5 h
  Mean NFκB response: 2313.08 GFP+-cells/confluence ∙ 1000
[2]; 0.3 µM, 4,5 h
  Mean NFκB response: 2949.70 GFP+-cells/confluence ∙ 1000
[2]; 0.3 µM, 7,5 h
  Mean NFκB response: 7538.46 GFP+-cells/confluence ∙ 1000
[2]; 0.3 µM, 10,5 h
  Mean NFκB response: 18701.55 GFP+-cells/confluence ∙ 1000
[2]; 0.3 µM, 13,5 h
  Mean NFκB response: 27206.00 GFP+-cells/confluence ∙ 1000
[2]; 0.3 µM, 16,6 h
  Mean NFκB response: 33288.00 GFP+-cells/confluence ∙ 1000
[2]; 0.3 µM, 19,5 h
  Mean NFκB response: 37133.33 GFP+-cells/confluence ∙ 1000
[2]; 0.3 µM, 22,5 h
  Mean NFκB response: 40576.67 GFP+-cells/confluence ∙ 1000
[2]; 0.3 µM, 3 h
  Mean NFκB response: 2350.33 GFP+-cells/confluence ∙ 1000
[2]; 0.3 µM, 6 h
  Mean NFκB response: 4223.97 GFP+-cells/confluence ∙ 1000
[2]; 0.3 µM, 9 h
  Mean NFκB response: 13522.53 GFP+-cells/confluence ∙ 1000
[2]; 0.3 µM, 12 h
  Mean NFκB response: 23340.33 GFP+-cells/confluence ∙ 1000
[2]; 0.3 µM, 15 h
  Mean NFκB response: 30431.00 GFP+-cells/confluence ∙ 1000
[2]; 0.3 µM, 18 h
  Mean NFκB response: 35400.00 GFP+-cells/confluence ∙ 1000
[2]; 0.3 µM, 21 h
  Mean NFκB response: 39313.33 GFP+-cells/confluence ∙ 1000
[2]; 0.3 µM, 24 h
  Mean NFκB response: 41536.67 GFP+-cells/confluence ∙ 1000
[2]; 3 µM, 1,5 h
  Mean NFκB response: 2624.20 GFP+-cells/confluence ∙ 1000
[2]; 3 µM, 4,5 h
  Mean NFκB response: 2942.05 GFP+-cells/confluence ∙ 1000
[2]; 3 µM, 7,5 h
  Mean NFκB response: 5380.00 GFP+-cells/confluence ∙ 1000
[2]; 3 µM, 10,5 h
  Mean NFκB response: 14690.00 GFP+-cells/confluence ∙ 1000
[2]; 3 µM, 13,5 h
  Mean NFκB response: 22563.33 GFP+-cells/confluence ∙ 1000
[2]; 3 µM, 16,6 h
  Mean NFκB response: 28276.67 GFP+-cells/confluence ∙ 1000
[2]; 3 µM, 19,5 h
  Mean NFκB response: 33253.33 GFP+-cells/confluence ∙ 1000
[2]; 3 µM, 22,5 h
  Mean NFκB response: 36776.67 GFP+-cells/confluence ∙ 1000
[2]; 3 µM, 3 h
  Mean NFκB response: 2684.18 GFP+-cells/confluence ∙ 1000
[2]; 3 µM, 6 h
  Mean NFκB response: 3410.00 GFP+-cells/confluence ∙ 1000
[2]; 3 µM, 9 h
  Mean NFκB response: 9373.33 GFP+-cells/confluence ∙ 1000
[2]; 3 µM, 12 h
  Mean NFκB response: 19050.00 GFP+-cells/confluence ∙ 1000
[2]; 3 µM, 15 h
  Mean NFκB response: 25776.67 GFP+-cells/confluence ∙ 1000
[2]; 3 µM, 18 h
  Mean NFκB response: 30966.67 GFP+-cells/confluence ∙ 1000
[2]; 3 µM, 21 h
  Mean NFκB response: 34670.00 GFP+-cells/confluence ∙ 1000
[2]; 3 µM, 24 h
  Mean NFκB response: 38090.00 GFP+-cells/confluence ∙ 1000
HEK293T cells [3]; 0.3 µM
  Necrosis induction [NI]: 0.86 and 0.98 and 1.34
HEK293T cells [3]; 3 µM
  Necrosis induction [NI]: 0.69 and 0.58 and 0.64 and 0.72
[4]; Hela ATF6 reporter cells, tunicamycin 100 ng/mL, 18 h, compounds at recommended concentrations, n = 5
  ATF6 activity (tunicamycin-induced endoplasmic reticulum stress): lacked this effect; also recorded: failed to reduce ATF6 activity
[4]; Homo sapiens, HeLa, 0.3 µM, single replicates n=1 to n=5, read-out: ER stress [rel. ATF6 activity]
  activity at 0.3 µM: 98%
[4]; Homo sapiens, HeLa, 3 µM, single replicates n=1 to n=5, read-out: ER stress [rel. ATF6 activity]
  activity at 3 µM: 98% and 101%
HEK293T cells [5]; 0.3 µM
  Growth rate [GR]: 0.65 and 4.06 and 0.84 and 0.92 and 1.28 and 1.00 and 0.79 and 1.42 and 0.91 and 9.54
HEK293T cells [5]; 3 µM
  Growth rate [GR]: reduced the growth-rate and -0.21 and 0.65 and -0.29 and 0.04 and 0.36 and 0.21 and 0.28 and 1.17 and 0.46 and -0.41

## CC/C(=C(/c1ccc(/C=C/C(=O)O)cc1)c1ccc2[nH]ncc2c1)c1ccc(F)cc1Cl [ARN810]
AURKA
  ΔTm at 20 µM: 1.69 °C
BRPF1
  ΔTm at 20 µM: 0 °C
GSK3B
  ΔTm at 20 µM: 3.37 °C
CDK2
  ΔTm at 20 µM: -3.66 °C
MAPK1
  ΔTm at 20 µM: 0 °C
HEK293T cells [1]; 1 µM, DMSO 0.1% = 1.00
  Apoptosis induction [AI]: 0.78 and 0.92
BRD4
  ΔTm at 20 µM: -0.16 °C
Gal4-VP16; replicate n=1
  VP16 control [fold reporter gene activity] (n=3), n=1: 1.06 fold
Gal4-VP16; replicate n=2
  VP16 control [fold reporter gene activity] (n=3), n=2: 1.05 fold
Gal4-VP16; replicate n=3
  VP16 control [fold reporter gene activity] (n=3), n=3: 1.02 fold
ABL1
  ΔTm at 20 µM: -5.16 °C
CSNK1D
  ΔTm at 20 µM: -4.37 °C
HEK293T cells [5]; 1 µM
  Growth rate [GR]: 0.88 and 0.90 and 1.13 and 0.87 and 1.11 and 0.85
